Source: patent publication US10669283B2, “Compound and pharmacologically acceptable salt thereof” (MEIJI SEIKA PHARMA CO., LTD., priority 2016, dated 2020)
pIC50: −log10 of the molar value.

test system: PDE4; experiment: PDE4 inhibition, scintillation proximity assay (SPA); assay type: biochemical; conditions: scintillation proximity assay (SPA); evaluated as classes A, B, C; read-out: PDE4 Inhibitory Activity (concentration for the inhibition rate of 50%);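 as to PDE4 Inhibitory Activity (concentration for the inhibition rate of 50%): A below 100 nM B 100 to below 1000 nM C 1000 nM or more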
Method: The PDE4 inhibitory activity was measured using scintillation proximity assay (SPA) as follows. A sample compound dissolved in dimethyl sulfoxide was diluted 1:10 in reaction buffer solution which contained 50 mM of Tris-HCl with pH 7.4, 8.3 mM of MgCl2, 1.7 mM of EGTA, and 3 mg/mL of bovine serum albumin (BSA). Then, 10 μL of the diluted solution was added in a 96-well assay plate. Moreover, 50 μL of PDE4 diluted 1:375 in the reaction buffer solution was added, and then 40 μL of [2,8-^3H]-adenosine-3′,5′-cyclic phosphate triethylammonium salt diluted 1:1000 in the reaction buffer solution was added. The mixture was allowed to stand at room temperature for 120 minutes. Thereafter, […] of RNA binding YSi-SPA beads suspension containing ZnSO4 was added and the mixture was allowed to stand at room temperature for 15 minutes, followed by adsorption of the enzyme reaction product to the beads. After that, the radioactivity was measured using a liquid scintillation counter for a 96-well plate. The mixture without the enzyme preparation added but only the reaction buffer solution added is a blank, and the mixture with the enzyme preparation added and only dimethyl sulfoxide added instead of the sample solution is a control.

Compound	pIC50
FC(F)(F)c1cc(-c2nccs2)c2oc(N3CC4CCC(C3)N4)nc2c1 [Example 51, 2-(3,8-Diazabicyclo[3.2.1]octan-3-yl)-7-(thiazol-2-yl)-5-(trifluoromethyl)benzo[d]oxazole]	> 7.00
Oc1cc(-c2nccs2)c2oc(N3CC4CC(C3)N4)nc2c1 [Example 64, 2-(3,6-Diazabicyclo[3.1.1]heptan-3-yl)-7-(thiazol-2-yl)benzo[d]oxazol-5-ol]	> 7.00
CCC(O)c1cc(-c2nccs2)c2oc(N3CC4CCC(C3)N4)nc2c1OC(F)(F)F (stereo not drawn) [Example 204, 1-(2-(3,8-Diazabicyclo[3.2.1]octan-3-yl)-7-(thiazol-2-yl)-4-(trifluoromethoxy)benzo[d]oxazol-5-yl)propan-1-ol]	> 7.00
COC(C)c1cc(-c2nccs2)c2oc(N3CC4CC(C3)N4)nc2c1OC(F)(F)F (stereo not drawn) [Example 211, 2-(3,6-Diazabicyclo[3.1.1]heptan-3-yl)-5-(1-methoxyethyl)-7-(thiazol-2-yl)-4-(trifluoromethoxy)benzo[d]oxazole]	> 7.00
COc1cc(-c2nccs2)c2oc(N3CC4CC(C3)N4)nc2c1 [Example 61, 2-(3,6-Diazabicyclo[3.1.1]heptan-3-yl)-5-methoxy-7-(thiazol-2-yl)benzo[d]oxazole]	> 7.00
O=C(c1cc(-c2nccs2)c2oc(N3CC4CCC(C3)N4)nc2c1)N1CCOCC1 [Example 95, (2-(3,8-Diazabicyclo[3.2.1]octan-3-yl)-7-(thiazol-2-yl)benzo[d]oxazol-5-yl)(morpholino)methanone]	> 7.00
OC(O)(c1ccc(-c2nccs2)c2oc(N3CC4CCC(C3)N4)nc12)C(F)(F)F [Example 233, 1-(2-(3,8-Diazabicyclo[3.2.1]octan-3-yl)-7-(thiazol-2-yl)benzo[d]oxazol-4-yl)-2,2,2-trifluoroethane-1,1-diol]	> 7.00
COCCOC(c1cc(-c2nccs2)c2oc(N3CC4CCC(C3)N4)nc2c1)C(F)(F)F (stereo not drawn) [Example 147, 2-(3,8-Diazabicyclo[3.2.1]octan-3-yl)-7-(thiazol-2-yl)-5-(2,2,2-trifluoro-1-(2-methoxyethoxy)ethyl)benzo[d]oxazole]	> 7.00
COC(C)(c1cc(-c2nccs2)c2oc(N3CC4CCC(C3)N4)nc2c1OC(F)(F)F)C(F)(F)F (stereo not drawn) [Example 215, 2-(3,8-Diazabicyclo[3.2.1]octan-3-yl)-7-(thiazol-2-yl)-5-(1,1,1-trifluoro-2-methoxypropan-2-yl)-4-(trifluoromethoxy)benzo[d]oxazole]	> 7.00
CC(O)c1cc(-c2nccs2)c2oc(N3CC4CCC(C3)N4)nc2c1OC(F)(F)F (stereo not drawn) [Example 202, 1-(2-(3,8-Diazabicyclo[3.2.1]octan-3-yl)-7-(thiazol-2-yl)-4-(trifluoromethoxy)benzo[d]oxazol-5-yl)ethan-1-ol]	> 7.00
CC(C)(CO)Oc1ccc(-c2nccs2)c2oc(N3CC4CC(C3)N4)nc12 [Example 268, 2-((2-(3,6-Diazabicyclo[3.1.1]heptan-3-yl)-7-(thiazol-2-yl)benzo[d]oxazol-4-yl)oxy)-2-methylpropan-1-ol]	> 7.00
FC(F)(F)c1c(Cl)cc(-c2nccs2)c2oc(N3CC4CCC(C3)N4)nc12 [Example 20, 2-(3,8-Diazabicyclo[3.2.1]octan-3-yl)-5-chloro-7-(thiazol-2-yl)-4-(trifluoromethyl)benzo[d]oxazole]	> 7.00
FC(F)(F)c1c(Cl)cc(-c2ccccn2)c2oc(N3CC4CC(C3)N4)nc12 [Example 13, 2-(3,6-Diazabicyclo[3.1.1]heptan-3-yl)-5-chloro-7-(pyridin-2-yl)-4-(trifluoromethyl)benzo[d]oxazole]	> 7.00
N#CCOc1cc(-c2nccs2)c2oc(N3CC4CCC(C3)N4)nc2c1 [Example 73, 2-((2-(3,8-Diazabicyclo[3.2.1]octan-3-yl)-7-(thiazol-2-yl)benzo[d]oxazol-5-yl)oxy)acetonitrile]	> 7.00
COC(C)c1cc(-c2nccs2)c2oc(N3CC4CCC(C3)N4)nc2c1OC(F)(F)F (stereo not drawn) [Example 210, 2-(3,8-Diazabicyclo[3.2.1]octan-3-yl)-5-(1-methoxyethyl)-7-(thiazol-2-yl)-4-(trifluoromethoxy)benzo[d]oxazole]	> 7.00
CC(=O)c1cc(-c2nccs2)c2oc(N3CC4CCC(C3)N4)nc2c1OC(F)(F)F [Example 213, 1-(2-(3,8-Diazabicyclo[3.2.1]octan-3-yl)-7-(thiazol-2-yl)-4-(trifluoromethoxy)benzo[d]oxazol-5-yl)ethan-1-one]	> 7.00
OCC(F)(F)Oc1ccc(-n2cccn2)c2oc(N3CC4CC(C3)N4)nc12 [Example 320, 2-((2-(3,6-Diazabicyclo[3.1.1]heptan-3-yl)-7-(1H-pyrazol-1-yl)benzo[d]oxazol-4-yl)oxy)-2,2-difluoroethan-1-ol]	> 7.00
OC1(c2cc(-c3cscn3)c3oc(N4CC5CC(C4)N5)nc3c2OC(F)(F)F)CC1 [Example 299, 1-(2-(3,6-Diazabicyclo[3.1.1]heptan-3-yl)-7-(thiazol-4-yl)-4-(trifluoromethoxy)benzo[d]oxazol-5-yl)cyclopropan-1-ol]	> 7.00
FC(F)(F)Oc1c(Cl)cc(-c2nccs2)c2oc(N3CC4CCCC(C3)N4)nc12 [Example 2, 2-(3,9-Diazabicyclo[3.3.1]nonan-3-yl)-5-chloro-7-(thiazol-2-yl)-4-(trifluoromethoxy)benzo[d]oxazole]	> 7.00
COC(C)c1cc(-c2nccs2)c2oc(N3CC4CC(C3)N4)nc2c1 (stereo not drawn) [Example 111, 2-(3,6-Diazabicyclo[3.1.1]heptan-3-yl)-5-(1-methoxyethyl)-7-(thiazol-2-yl)benzo[d]oxazole]	> 7.00
O=S1(=O)CCC(Oc2ccc(-c3nccs3)c3oc(N4CC5CC(C4)N5)nc23)CC1 [Example 314, 4-((2-(3,6-Diazabicyclo[3.1.1]heptan-3-yl)-7-(thiazol-2-yl)benzo[d]oxazol-4-yl)oxy)tetrahydro-2H-thiopyran 1,1-dioxide]	> 7.00
CC(O)C(F)(F)Oc1ccc(-c2cscn2)c2oc(N3CC4CCC(C3)N4)nc12 (stereo not drawn) [Example 310, 1-((2-(3,8-Diazabicyclo[3.2.1]octan-3-yl)-7-(thiazol-4-yl)benzo[d]oxazol-4-yl)oxy)-1,1-difluoropropan-2-ol]	> 7.00
CC(C)(O)COC(c1ccc(-c2cscn2)c2oc(N3CC4CC(C3)N4)nc12)C(F)(F)F (stereo not drawn) [Example 284, 1-(1-(2-(3,6-Diazabicyclo[3.1.1]heptan-3-yl)-7-(thiazol-4-yl)benzo[d]oxazol-4-yl)-2,2,2-trifluoroethoxy)-2-methylpropan-2-ol]	> 7.00
Oc1cc(-c2nccs2)c2oc(N3CC4CCC(C3)N4)nc2c1 [Example 63, 2-(3,8-Diazabicyclo[3.2.1]octan-3-yl)-7-(thiazol-2-yl) benzo[d]oxazol-5-ol]	> 7.00
OCC(CO)COc1cc(-c2nccs2)c2oc(N3CC4CCC(C3)N4)nc2c1 [Example 71, 2-(((2-(3,8-Diazabicyclo[3.2.1]octan-3-yl)-7-(thiazol-2-yl)benzo[d]oxazol-5-yl)oxy)methyl)propane-1,3-diol]	> 7.00
COC(C)(c1cc(-c2nccs2)c2oc(N3CC4CC(C3)N4)nc2c1OC(F)(F)F)C(F)(F)F (stereo not drawn) [Example 214, 2-(3,6-Diazabicyclo[3.1.1]heptan-3-yl)-7-(thiazol-2-yl)-5-(1,1,1-trifluoro-2-methoxypropan-2-yl)-4-(trifluoromethoxy)benzo[d]oxazole]	> 7.00
c1csc(-c2ccc(OC3CCCOC3)c3nc(N4CC5CCC(C4)N5)oc23)n1 (stereo not drawn) [Example 262, 2-(3,8-Diazabicyclo[3.2.1]octan-3-yl)-4-((tetrahydro-2H-pyran-3-yl)oxy)-7-(thiazol-2-yl)benzo[d]oxazole]	> 7.00
OC(c1ccc(-c2nccs2)c2oc(N3CC4CCC(C3)N4)nc12)C(F)(F)F (stereo not drawn) [Example 119, 1-(2-(3,8-Diazabicyclo[3.2.1]octan-3-yl)-7-(thiazol-2-yl)benzo[d]oxazol-4-yl)-2,2,2-trifluoroethan-1-ol]	> 7.00
CC(=O)c1cc(-c2nccs2)c2oc(N3CC4CC(C3)N4)nc2c1 [Example 109, 1-(2-(3,6-Diazabicyclo[3.1.1]heptan-3-yl)-7-(thiazol-2-yl)benzo[d]oxazol-5-yl)ethan-1-one]	> 7.00
COCc1cc(-c2nccs2)c2oc(N3CC4CCC(C3)N4)nc2c1C(F)(F)F [Example 167, 2-(3,8-Diazabicyclo[3.2.1]octan-3-yl)-5-(methoxymethyl)-7-(thiazol-2-yl)-4-(trifluoromethyl)benzo[d]oxazole]	> 7.00

same assay, conditions: scintillation proximity assay; class symbols; read-out: PDE4 Inhibitory Activity

Compound	pIC50
CN(CCO)S(=O)(=O)c1ccc(-c2nccs2)c2oc(N3CC4CC(C3)N4)nc12 [Example 389, 2-(3,6-diazabicyclo[3.1.1]heptan-3-yl)-N-(2-hydroxyethyl)-N-methyl-7-(thiazol-2-yl)benzo[d] oxazole-4-sulfonamide]	> 7.00
CN(C)C(=O)C(F)(F)Oc1ccc(-c2nccs2)c2oc(N3CC4CC(C3)N4)nc12 [Example 408, 2-((2-(3,6-diazabicyclo [3.1.1]heptan-3-yl)-7-(thiazol-2-yl)benzo[d]oxazol-4-yl)oxy)-2,2-difluoro-N,N-dimethyl-acetamide]	> 7.00
c1csc(-c2ccc(C3CCC3)c3nc(N4CC5CC(C4)N5)oc23)n1 [Example 414, 2-(3,6-diazabicyclo[3.1.1]heptan-3-yl)-4-cyclobutyl-7-(thiazol-2-yl)benzo[d]oxazole]	> 7.00
